Laboratory results taken from patent US9187472B2 (AbbVie Inc., priority 2012, dated 2015).

Experiments:
[1] = test system: PC3 cells; assay: NAMPT Cell Proliferation Assay; format: cell-based; settings: Homo sapiens, PC-3, 120 h, 5 days incubation, cell viability by Cell Titer Glo
Method in brief: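 Cell Titer Glo viability after 5-day exposure (37° C, 5% CO2); PC3, 500 cells/well, RPMI + 10% heat-inactivated FBS, overnight attachment before dosing. Dose range 10 μM to 1×10^−5 μM, 10-fold steps. IC50 = sigmoidal fit of % inhibition.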

[2] = target: NAMPT (human, recombinant, C-terminally His-tagged) (Homo sapiens, UniProt P43490); assay: Time-Resolved Fluorescence Resonance Energy Transfer (TR-FRET) Binding Assay of NAMPT; settings: without substrates; 6.8 nM NAMPT, 200 nM probe, 3 hours equilibration
Sequence of NAMPT (human, recombinant, C-terminally His-tagged) (P43490 whole entry): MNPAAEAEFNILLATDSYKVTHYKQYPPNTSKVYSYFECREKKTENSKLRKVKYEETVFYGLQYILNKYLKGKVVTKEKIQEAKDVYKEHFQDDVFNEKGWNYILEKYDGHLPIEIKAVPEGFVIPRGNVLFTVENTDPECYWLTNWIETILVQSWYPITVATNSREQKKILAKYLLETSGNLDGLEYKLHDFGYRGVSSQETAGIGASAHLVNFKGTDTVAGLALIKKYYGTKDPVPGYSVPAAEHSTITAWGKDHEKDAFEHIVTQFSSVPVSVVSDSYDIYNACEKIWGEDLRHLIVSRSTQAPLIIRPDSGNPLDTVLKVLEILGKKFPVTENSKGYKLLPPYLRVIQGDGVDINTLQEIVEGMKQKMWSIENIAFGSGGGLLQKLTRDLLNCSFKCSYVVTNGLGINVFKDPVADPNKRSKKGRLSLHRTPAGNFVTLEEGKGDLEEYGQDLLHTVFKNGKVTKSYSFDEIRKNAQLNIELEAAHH
Method in brief: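 Compounds, diluted in half-log steps, are mixed with enzyme (6.8 nM), fluorescent probe (200 nM) and Tb-anti-His antibody (1 nM) in pH 7.5 HEPES buffer containing 10 mM MgCl2 and 1 mM DTT. Plates equilibrate 3 h at room temperature; normalized FRET ratios are fitted by four-parameter logistic regression for IC50.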

[3] = target: NAMPT (Homo sapiens, UniProt P43490); assay: TR-FRET Binding Assay of NAMPT with PRPP; settings: with 200 μM PRPP and 2.5 mM ATP; 2 nM NAMPT, 2 nM probe, 16 hours equilibration
Sequence of NAMPT (P43490 whole entry): as above
Method in brief: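 Compounds were mixed with 2 nM His-tagged NAMPT, 2 nM probe, 1 nM terbium anti-His antibody, 200 μM PRPP and 2.5 mM ATP in assay buffer with 2% DMSO, then left 16 hours to permit possible enzymatic processing of compounds before time-resolved FRET was measured.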

IC50 [1] [nM] | IC50 [2] [nM] | IC50 [3] [nM] | Structure (SMILES)
7.47 | 163 | 0.384 | CC(C)(C)C(=O)N1CCC(c2ccc(C(=O)NCc3ccn4ccnc4c3)cc2)CC1 [Example 509, 4-[1-(2,2-dimethylpropanoyl)piperidin-4-yl]-N-(imidazo[1,2-a]pyridin-7-ylmethyl)benzamide]
93.4 | 318 | 0.671 | O=C(NCc1ccn2ccnc2c1)c1ccc(C2CN(C(=O)c3ccoc3)C2)cc1 [Example 662, 4-[1-(furan-3-ylcarbonyl)azetidin-3-yl]-N-(imidazo[1,2-a]pyridin-7-ylmethyl)benzamide]
7510 | 3170 | 0.47 | O=C(NCc1ccn2ccnc2c1)c1ccc(O[C@H]2CCN(C(=O)c3ccccc3)C2)cc1 [Example 353, 4-{[(3S)-1-benzoylpyrrolidin-3-yl]oxy}-N-(imidazo[1,2-a]pyridin-7-ylmethyl)benzamide]
70.9 | 288 | 0.621 | O=C(NCc1ccn2ccnc2c1)c1ccc(C2CCN(C(=O)c3ccccn3)C2)cc1 (stereo not drawn) [Example 611, N-(imidazo[1,2-a]pyridin-7-ylmethyl)-4-[1-(pyridin-2-ylcarbonyl)pyrrolidin-3-yl]benzamide]
1.11 | 22.7 | 0.682 | O=C(NCc1ccn2ccnc2c1)c1ccc(C2CCN(C(=O)c3ccccc3Cl)C2)cc1 (stereo not drawn) [Example 594, 4-[1-(2-chlorobenzoyl)pyrrolidin-3-yl]-N-(imidazo[1,2-a]pyridin-7-ylmethyl)benzamide]
55.5 | 494 | 0.369 | O=C(NCc1ccn2ccnc2c1)c1ccc(C2CCN(C(=O)CC3CCCO3)CC2)cc1 (stereo not drawn) [Example 235, N-(imidazo[1,2-a]pyridin-7-ylmethyl)-4-[1-(tetrahydrofuran-2-ylacetyl)piperidin-4-yl]benzamide]
16.5 | 169 | 0.385 | O=C(NCc1ccn2ccnc2c1)c1ccc(C2CCN(C(=O)C3CCCCC3)CC2)cc1 [Example 502, 4-[1-(cyclohexylcarbonyl)piperidin-4-yl]-N-(imidazo[1,2-a]pyridin-7-ylmethyl)benzamide]
3.2 | 121 | 0.359 | Cc1ccccc1C(=O)N1CCC(c2ccc(C(=O)NCc3ccn4ccnc4c3)cc2)CC1 [Example 507, N-(imidazo[1,2-a]pyridin-7-ylmethyl)-4-[1-(2-methylbenzoyl)piperidin-4-yl]benzamide]
226 | 795 | 0.76 | CCS(=O)(=O)N1CCC(c2ccc(C(=O)NCc3ccn4ccnc4c3)cc2)C1 (stereo not drawn) [Example 625, 4-[1-(ethylsulfonyl)pyrrolidin-3-yl]-N-(imidazo[1,2-a]pyridin-7-ylmethyl)benzamide]
203 | 661 | 1.06 | O=C(NCc1ccn2ccnc2c1)c1ccc(C2CN(C(=O)c3cc(F)cc(F)c3)C2)cc1 [Example 648, 4-[1-(3,5-difluorobenzoyl)azetidin-3-yl]-N-(imidazo[1,2-a]pyridin-7-ylmethyl)benzamide]
76.2 | 367 | 0.856 | O=C(NCc1ccn2ccnc2c1)c1ccc(C2CCN(C(=O)c3ccc(F)c(F)c3)CC2)cc1 [Example 701, 4-[1-(3,4-difluorobenzoyl)piperidin-4-yl]-N-(imidazo[1,2-a]pyridin-7-ylmethyl)benzamide]
6.9 | 28 | 0.552 | O=C(NCc1ccn2ccnc2c1)c1ccc(C2CN(C(=O)c3ccccc3Cl)C2)cc1 [Example 643, 4-[1-(2-chlorobenzoyl)azetidin-3-yl]-N-(imidazo[1,2-a]pyridin-7-ylmethyl)benzamide]
64.8 | 276 | 0.715 | CC(C)CC(=O)N1CC(c2ccc(C(=O)NCc3ccn4ccnc4c3)cc2)C1 [Example 651, N-(imidazo[1,2-a]pyridin-7-ylmethyl)-4-[1-(3-methylbutanoyl)azetidin-3-yl]benzamide]

Second part, the compound before the results:

Structure (SMILES) | IC50 [1] [nM] | IC50 [2] [nM] | IC50 [3] [nM]
CC(C)(C)OC(=O)N1CCN(CCn2cc(-c3ccc(C(=O)NCc4ccn5ccnc5c4)s3)cn2)CC1 [Example 808, tert-butyl 4-[2-(4-{5-[(imidazo[1,2-a]pyridin-7-ylmethyl)carbamoyl]thiophen-2-yl}-1H-pyrazol-1-yl)ethyl]piperazine-1-carboxylate] | 1.1 | 94.4 | 0.568
CC(C)C(=O)n1cc(-c2ccc(C(=O)NCc3ccc4nccn4c3)s2)cn1 [Example 175, N-(imidazo[1,2-a]pyridin-6-ylmethyl)-5-[1-(2-methylpropanoyl)-1H-pyrazol-4-yl]thiophene-2-carboxamide] | 313 | 697 | 0.9
CC(C)OCCNC(=O)N(C[C@H]1CCCO1)c1ncc(C(=O)NCc2ccc3nccn3c2)s1 [Example 154, N-(imidazo[1,2-a]pyridin-6-ylmethyl)-2-({[2-(propan-2-yloxy)ethyl]carbamoyl}[(2R)-tetrahydrofuran-2-ylmethyl]amino)-1,3-thiazole-5-carboxamide] | 6.67 | 194 | 2.6
O=C(NCc1ccn2ccnc2c1)c1cnc(N(C[C@H]2CCCO2)C(=O)Cc2cscn2)s1 [Example 196, N-(imidazo[1,2-a]pyridin-7-ylmethyl)-2-{[(2R)-tetrahydrofuran-2-ylmethyl](1,3-thiazol-4-ylacetyl)amino}-1,3-thiazole-5-carboxamide] | 6.75 | 358 | 0.169
O=C(NCc1ccn2ccnc2c1)c1cnc(N(C[C@H]2CCCO2)C(=O)CCc2cnoc2)s1 [Example 195, N-(imidazo[1,2-a]pyridin-7-ylmethyl)-2-{[3-(1,2-oxazol-4-yl)propanoyl][(2R)-tetrahydrofuran-2-ylmethyl]amino}-1,3-thiazole-5-carboxamide] | 0.966 | 24.7 | 0.251
O=C(NCc1ccn2ccnc2c1)c1ccc(C2CCN(C(=O)CC3CC3)C2)s1 (stereo not drawn) [Example 756, 5-[1-(cyclopropylacetyl)pyrrolidin-3-yl]-N-(imidazo[1,2-a]pyridin-7-ylmethyl)thiophene-2-carboxamide] | 18.9 | 123 | 0.609
CCCCC(=O)NC1(c2ccc(C(=O)NCc3ccn4ccnc4c3)s2)COC1 [Example 327, N-(imidazo[1,2-a]pyridin-7-ylmethyl)-5-[3-(pentanoylamino)oxetan-3-yl]thiophene-2-carboxamide] | 638 | 1320 | 0.558
Cc1nn(C)cc1CC(=O)N(CC1CCCO1)c1ncc(C(=O)NCc2ccc3nccn3c2)s1 (stereo not drawn) [Example 184, 2-{[(1,3-dimethyl-1H-pyrazol-4-yl)acetyl](tetrahydrofuran-2-ylmethyl)amino}-N-(imidazo[1,2-a]pyridin-6-ylmethyl)-1,3-thiazole-5-carboxamide] | 65.1 | 4340 | 2.54
CC(=O)N1CCC(c2ccc(NC(=O)NCc3ccn4ccnc4c3)cc2)C1 (stereo not drawn) [Example 379, 1-[4-(1-acetylpyrrolidin-3-yl)phenyl]-3-(imidazo[1,2-a]pyridin-7-ylmethyl)urea] | 370 | 279 | 0.29
O=C(NCc1ccn2ccnc2c1)Nc1ncc(C(=O)N2CCCCC2)s1 [Example 404, 1-(imidazo[1,2-a]pyridin-7-ylmethyl)-3-[5-(piperidin-1-ylcarbonyl)-1,3-thiazol-2-yl]urea] | 9410 | 2550 | 0.88
O=C(CC1CCOC1)Nc1ccc(C(=O)NCc2ccn3ccnc3c2)cc1 (stereo not drawn) [Example 214, N-(imidazo[1,2-a]pyridin-7-ylmethyl)-4-[(tetrahydrofuran-3-ylacetyl)amino]benzamide] | 289 | 641 | 1.28
O=C(NCc1ccn2ccnc2c1)c1ccc(O[C@H]2CCN(C(=O)[C@H]3CCCO3)C2)cc1 [Example 340, N-(imidazo[1,2-a]pyridin-7-ylmethyl)-4-({(3S)-1-[(2R)-tetrahydrofuran-2-ylcarbonyl]pyrrolidin-3-yl}oxy)benzamide] | > 10000 | > 10000 | 0.817
CC(C)C(=O)N1CCC(c2ccc(C(=O)NCc3ccn4ccnc4c3)s2)C1 (stereo not drawn) [Example 541, N-(imidazo[1,2-a]pyridin-7-ylmethyl)-5-[1-(2-methylpropanoyl)pyrrolidin-3-yl]thiophene-2-carboxamide] | 64.5 | 175 | 0.448
O=C(NCc1ccn2ccnc2c1)c1ccc(C2CCN(C(=O)c3ccno3)CC2)s1 [Example 264, N-(imidazo[1,2-a]pyridin-7-ylmethyl)-5-[1-(1,2-oxazol-5-ylcarbonyl)piperidin-4-yl]thiophene-2-carboxamide] | 6.69 | 40.4 | 0.412
Cc1nc(CC(=O)N(CC2CCCO2)c2ncc(C(=O)NCc3ccc4nccn4c3)s2)cs1 (stereo not drawn) [Example 124, N-(imidazo[1,2-a]pyridin-6-ylmethyl)-2-{[(2-methyl-1,3-thiazol-4-yl)acetyl](tetrahydrofuran-2-ylmethyl)amino}-1,3-thiazole-5-carboxamide] | 20.8 | 1100 | 2.12
